Measurements published in patent US20030008903A1, “R-lansoprazole compositions and methods” (Sepracor Inc., priority 1998, published 2003).

How the values were obtained:
[1] = tested on: canine parietal cells; settings: isolated canine parietal cells; (+) versus (−) enantiomer; Nagaya et al.; cited from earlier work
[2] = human, in vivo
Text: Utilizing the optically pure or substantially optically pure isomer of (+) lansoprazole results in enhanced efficacy, diminished adverse effects, and accordingly, an improved therapeutic index. […] It is therefore, more desirable to use the (+) isomer of lansoprazole than to administer the racemic mixture because predictability of an effective and safe dose for an individual patient is greater.

[3] = humans; cited from earlier work
[4] = tested on: serum gastrin; settings: humans, on administration of racemic lansoprazole; cited from earlier work
[5] = tested on: hepatic drug metabolizing enzyme systems; settings: compared with omeprazole; cited from earlier work
[6] = tested on: gastric acid secretion; settings: humans; cited from earlier work

Compound	effects on acid formation stimulated by db-cAMP [1]	half-life [2]	variation in the patient population between good metabolizers and poor metabolizers [2]	serum half-life [3]	fasting serum gastrin levels [4]	effects on hepatic drug metabolizing enzyme systems [5]	duration of the acid inhibitory effect [6]
Cc1c(OCC(F)(F)F)ccnc1C[S+]([O-])c1nc2ccccc2[nH]1 (stereo not drawn) [S(−) lansoprazole]	almost identical						
Cc1c(OCC(F)(F)F)ccnc1C[S@@+]([O-])c1nc2ccccc2[nH]1 (single isomer, unassigned) [R(+) lansoprazole, (+) isomer of 2-[3-methyl-4-(2,2,2-trifluoroethoxy)pyrid-2-yl]methylsulfinyl-benzimidazole]	almost identical	longer half-life	less variation				
Cc1c(OCC(F)(F)F)ccnc1C[S+]([O-])c1nc2ccccc2[nH]1 (racemic) [racemic lansoprazole, 2-[3-methyl-4-(2,2,2-trifluoroethoxy)pyrid-2-yl]methylsulfinyl-benzimidazole]				about 1.5 hours	significantly elevated	comparable to omeprazole	about 24 hours
